Where a name gives a salt, the structure may show the parent alone.

Human Plasmin, sequence (P00747 581-810 limits assumed): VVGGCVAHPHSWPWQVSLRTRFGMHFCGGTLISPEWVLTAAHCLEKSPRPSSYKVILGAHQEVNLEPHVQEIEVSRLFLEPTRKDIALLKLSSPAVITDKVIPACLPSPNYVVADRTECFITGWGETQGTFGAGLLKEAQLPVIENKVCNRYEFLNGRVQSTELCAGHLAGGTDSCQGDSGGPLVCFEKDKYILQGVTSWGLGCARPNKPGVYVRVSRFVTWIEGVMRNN
Human Plasmin, sequence (P00747 97-580 partner limits assumed): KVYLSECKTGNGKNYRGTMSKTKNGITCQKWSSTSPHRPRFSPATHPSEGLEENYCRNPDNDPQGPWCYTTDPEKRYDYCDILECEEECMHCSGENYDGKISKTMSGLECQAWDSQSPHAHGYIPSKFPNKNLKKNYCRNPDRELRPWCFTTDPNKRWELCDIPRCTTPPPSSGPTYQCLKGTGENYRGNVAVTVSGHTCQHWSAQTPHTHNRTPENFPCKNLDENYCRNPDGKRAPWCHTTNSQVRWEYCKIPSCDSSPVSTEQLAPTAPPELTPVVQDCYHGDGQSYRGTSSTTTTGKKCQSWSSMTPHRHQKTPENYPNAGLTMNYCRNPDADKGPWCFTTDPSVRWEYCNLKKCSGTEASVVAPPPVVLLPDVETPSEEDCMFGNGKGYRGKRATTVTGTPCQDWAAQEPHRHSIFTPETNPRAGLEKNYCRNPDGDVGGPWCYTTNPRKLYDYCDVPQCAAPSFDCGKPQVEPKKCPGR
Human Plasma Kallikrein, sequence (P03952 391-638 limits assumed): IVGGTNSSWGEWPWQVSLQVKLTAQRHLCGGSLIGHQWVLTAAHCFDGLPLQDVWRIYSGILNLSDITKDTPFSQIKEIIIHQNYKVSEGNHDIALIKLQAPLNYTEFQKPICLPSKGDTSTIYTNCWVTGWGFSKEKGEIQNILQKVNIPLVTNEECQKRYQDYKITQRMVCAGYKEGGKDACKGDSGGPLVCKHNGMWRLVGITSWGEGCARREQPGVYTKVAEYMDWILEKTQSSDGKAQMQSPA
Human Plasma Kallikrein, sequence (P03952 20-390 partner limits assumed): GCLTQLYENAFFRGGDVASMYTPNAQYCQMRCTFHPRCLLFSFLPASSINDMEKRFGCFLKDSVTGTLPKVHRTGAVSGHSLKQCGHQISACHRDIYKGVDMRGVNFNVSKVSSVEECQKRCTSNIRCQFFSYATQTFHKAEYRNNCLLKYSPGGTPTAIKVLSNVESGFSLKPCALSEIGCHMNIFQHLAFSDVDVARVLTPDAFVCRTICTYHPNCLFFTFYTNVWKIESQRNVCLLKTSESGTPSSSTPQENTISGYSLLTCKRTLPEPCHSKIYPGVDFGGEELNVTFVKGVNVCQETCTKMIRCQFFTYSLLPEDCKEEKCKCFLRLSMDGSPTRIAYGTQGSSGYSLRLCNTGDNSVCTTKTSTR

The first assay has as its target Human Plasma Kallikrein (Homo sapiens, UniProt P03952). Kind of assay: Inhibitory effect on ester-hydrolyzing activity of human plasma kallikrein (TAMe substrate). Format: biochemical. The conditions noted are these: in vitro, TAMe; Table 4 bracketed value; read-out: Kallikrein ID50. On the procedure: (§1) The enzyme-inhibitory activities in vitro of the compounds of this invention were measured by the following procedure according to the method of M. Muramatsu et al. [[…]. […] After the incubation, 1.5 ml of 2 M alkaline hydroxylamine was added and thoroughly mixed, and allowed to stand at room temperature for 15 minutes.
Turning to `CN(C)C(=O)COC(=O)c1ccc(OC(=O)C2CCCc3c(N)cccc32)cc1` (stereo not shown) [Compound 72], the IC50 stood at 1000 µM.

Consider `Nc1cccc2c1CCCC2C(=O)Oc1ccc(OC(=O)C2CCCc3c(N)cccc32)cc1` (stereo not shown) [Compound 78], for which the IC50 is 360 µM.

Staying with this assay, now noted: read-out: Kallikrein percent inhibition.
In the case of `NC(=O)COC(=O)c1ccc(OC(=O)C2CCCc3ccc(N)cc32)cc1` (stereo not shown) [Compound 99], the inhibition (in general, the share of the control response that was lost under treatment) at 1000 µM worked out at 17.2%.

Staying with this assay, now noted: text of Examples.
For the molecule `Cl.Nc1ccc2c(c1)C(C(=O)Oc1ccc(Cl)cc1)CCC2` (stereo not shown) [Compound 83, p-chlorophenyl 7-amino-1,2,3,4-tetrahydro-1-naphthoate hydrochloride], the “inhibitory activity on kallikrein” value was “no inhibitory action”.

For the next assay, the target named is T1, Human Cl Esterase (Homo sapiens, UniProt P09871).
T1 sequence (P09871 438-688 limits assumed): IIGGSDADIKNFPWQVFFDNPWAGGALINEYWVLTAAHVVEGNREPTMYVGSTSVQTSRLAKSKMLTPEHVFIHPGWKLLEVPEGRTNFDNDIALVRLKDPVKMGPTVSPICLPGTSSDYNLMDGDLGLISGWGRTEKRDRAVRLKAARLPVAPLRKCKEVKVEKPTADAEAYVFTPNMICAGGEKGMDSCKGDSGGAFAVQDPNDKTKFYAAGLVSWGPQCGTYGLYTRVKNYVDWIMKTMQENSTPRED
T1 sequence (P09871 16-437 partner limits assumed): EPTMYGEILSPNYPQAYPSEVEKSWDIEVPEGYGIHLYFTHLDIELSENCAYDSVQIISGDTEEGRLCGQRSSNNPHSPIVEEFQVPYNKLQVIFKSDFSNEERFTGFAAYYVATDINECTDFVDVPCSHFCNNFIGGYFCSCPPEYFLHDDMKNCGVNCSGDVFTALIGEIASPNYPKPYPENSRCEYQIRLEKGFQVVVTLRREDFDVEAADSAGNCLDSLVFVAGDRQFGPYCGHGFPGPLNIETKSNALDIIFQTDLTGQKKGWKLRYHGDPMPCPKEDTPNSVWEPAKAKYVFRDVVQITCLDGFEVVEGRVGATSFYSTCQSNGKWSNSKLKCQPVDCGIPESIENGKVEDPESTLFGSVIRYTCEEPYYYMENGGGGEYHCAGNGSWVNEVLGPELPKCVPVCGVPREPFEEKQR
As to the kind of experiment: Inhibitory effect on ester-hydrolyzing activity of human Cl esterase (ATEe substrate). Type of assay: biochemical. The conditions noted are these: at 10^-3 M; in vitro, ATEe; read-out: Cl-esterase percent inhibition.
Method: It was measured by using 0.1 ml of Cl esterase, 0.1 ml of 0.02 M sodium phosphate buffer solution (pH 7.4 ) and 10 μmoles of ATEe (acetyltyrosine ethyl ester) as substrate following the method described in (1).
`CCCOC(=O)c1ccc(OC(=O)C2CCCc3c(N)cccc32)cc1` (stereo not shown) [Compound 68]: the inhibition at 1000 µM was under 3.2%.

Turning to `Nc1cccc2c1CCCC2C(=O)Oc1ccc(OC(=O)C2CCCc3c(N)cccc32)cc1` (stereo not shown) [Compound 78], the inhibition at 1000 µM was found to be 15.2%.

`CCCOC(=O)c1ccc(OC(=O)C2CCCc3ccc(N)cc32)cc1` (stereo not shown) [Compound 96]: the inhibition at 1000 µM was under 3.2%.

The assay is the same for the next values; noted with them: in vitro, ATEe, pH 7.4; Table 4 bracketed value; read-out: Cl-esterase ID50.
As for `NC(=O)COC(=O)c1ccc(OC(=O)C2CCCc3ccc(N)cc32)cc1` (stereo not shown) [Compound 99], the IC50 was 540 µM.

For `CCCOC(=O)c1ccc(OC(=O)C2CCCc3c(NC(=N)N)cccc32)cc1` (stereo not shown) [Compound 123], the IC50 was 350 µM.

For the molecule `CCCOC(=O)c1ccc(OC(=O)C2CCCc3ccc(NC(=N)N)cc32)cc1` (stereo not shown) [Compound 151], the IC50 was determined as 330 µM.

The assay is the same for the next values; noted with them: read-out: Cl-esterase percent inhibition.
`COC(=O)c1ccc(OC(=O)C2CCCc3c(N)cccc32)cc1` (stereo not shown) [Compound 63]: the inhibition at 1000 µM came to 16.5%.

`CN(C)C(=O)COC(=O)c1ccc(OC(=O)C2CCCc3c(N)cccc32)cc1` (stereo not shown) [Compound 72]: the inhibition at 1000 µM is under 3.2%.

Still in this assay, the particulars now being: text of Examples.
Regarding `Cl.Nc1ccc2c(c1)C(C(=O)Oc1ccc(Cl)cc1)CCC2` (stereo not shown) [Compound 83, p-chlorophenyl 7-amino-1,2,3,4-tetrahydro-1-naphthoate hydrochloride], the “inhibitory activity on Cl-esterase” value is given as “no inhibitory action”.

A further assay has as its target T2, Trypsin (Bos taurus, UniProt P00760).
T2 sequence (P00760 24-246): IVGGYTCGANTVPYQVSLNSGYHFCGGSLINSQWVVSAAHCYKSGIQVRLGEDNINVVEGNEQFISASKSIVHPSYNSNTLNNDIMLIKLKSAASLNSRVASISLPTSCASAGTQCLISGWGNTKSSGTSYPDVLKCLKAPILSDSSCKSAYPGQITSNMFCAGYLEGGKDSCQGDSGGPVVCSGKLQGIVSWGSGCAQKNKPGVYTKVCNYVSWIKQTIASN
Kind of assay: Inhibitory effect on ester-hydrolyzing activity of trypsin (TAMe substrate). Type of assay: biochemical. The note with it: Example 6; read-out: ID50, tosylarginine methyl ester hydrolyzing activity of trypsin (unit inferred). On the procedure:
as §1
Regarding `CCOC(=O)c1ccc(OC(=O)C2CCCc3c(NC(=N)N)cccc32)cc1` (stereo not shown) [Compound 121, ethoxycarbonylphenyl 5-guanidino-1,2,3,4-tetrahydro-1-naphthoate hydrochloride], the IC50 worked out at 74 µM.

The same assay, now with this note: at 10^-3 M; in vitro, TAMe; read-out: Trypsin percent inhibition.
For the molecule `CCCOC(=O)c1ccc(OC(=O)C2CCCc3c(NC(=N)N)cccc32)cc1` (stereo not shown) [Compound 123], the inhibition at 1000 µM worked out at 45.7%.

The assay is the same for the next values; noted with them: in vitro, TAMe, pH 8.6, 37° C.; Table 4 bracketed value; read-out: Trypsin ID50.
On to `COC(=O)c1ccc(OC(=O)C2CCCc3c(N)cccc32)cc1` (stereo not shown) [Compound 63], for which the IC50 is 18 µM.

For the molecule `CCCOC(=O)c1ccc(OC(=O)C2CCCc3c(N)cccc32)cc1` (stereo not shown) [Compound 68], the IC50 was 41 µM.

In the case of `CN(C)C(=O)COC(=O)c1ccc(OC(=O)C2CCCc3c(N)cccc32)cc1` (stereo not shown) [Compound 72], the IC50 is 25 µM.

Regarding `Nc1cccc2c1CCCC2C(=O)Oc1ccc(OC(=O)C2CCCc3c(N)cccc32)cc1` (stereo not shown) [Compound 78], the IC50 is 36 µM.

For the molecule `CCCOC(=O)c1ccc(OC(=O)C2CCCc3ccc(N)cc32)cc1` (stereo not shown) [Compound 96], the IC50 was found to be 68 µM.

For `NC(=O)COC(=O)c1ccc(OC(=O)C2CCCc3ccc(N)cc32)cc1` (stereo not shown) [Compound 99], the IC50 worked out at 88 µM.

In the case of `CCCOC(=O)c1ccc(OC(=O)C2CCCc3ccc(NC(=N)N)cc32)cc1` (stereo not shown) [Compound 151], the IC50 is 100 µM.

A further assay has as its target Bovine Thrombin (Bos taurus, UniProt P00735). As to the kind of experiment: Inhibitory effect on ester-hydrolyzing activity of bovine thrombin (TAMe substrate). Type of assay: biochemical.
Conditions: not given
On the procedure:
The enzyme-inhibitory activities in vitro of the compounds of this invention were measured by the following procedure according to the method of M. Muramatsu et al. [M. Muramatsu, T. Onishi, S. Makino, Y. Hayashi and S. Fujii: J. Biochem., 58, 214 (1965)]
To 0.1 ml of trypsin (5 μg/ml) were added 0.5 ml of 0.1 M borate buffer solution (pH 8.6) containing 10 mM CaCl2, and 0.1 ml of a varying concentration of an inhibitor solution, and preincubation was carried out at 37° C. for 5 minutes. Then, 10 μmoles of the substrate, TAMe (tosylarginine methyl ester), was added, and incubation was preformed at 37° C. for 30 minutes.
After the incubation, 1.5 ml of 2 M alkaline hydroxylamine was added and thoroughly mixed, and allowed to stand at room temperature for 15 minutes. Then, 1.0 ml of each of 18% trichloroacetic acid, 4 N HCl and 10% FeCl3 was added and thoroughly mixed. If necessary, the mixture was centrifuged at 3,000 rpm for 10 minutes, and the absorbance of the supernatant was measured at 530 nm.
It was measured by using 0.4 ml of bovine thrombin […], 0.02 M sodium phosphate buffer solution (pH 7.4) and TAMe as substrate following the method described in (1).
`COC(=O)c1ccc(OC(=O)C2CCCc3c(N)cccc32)cc1` (stereo not shown) [Compound 63] had an IC50 of 1000 µM.

The molecule `CN(C)C(=O)COC(=O)c1ccc(OC(=O)C2CCCc3c(N)cccc32)cc1` (stereo not shown) [Compound 72] returned an IC50 of 120 µM.

The molecule `NC(=O)COC(=O)c1ccc(OC(=O)C2CCCc3ccc(N)cc32)cc1` (stereo not shown) [Compound 99] yielded an IC50 of 66 µM.

Take `CCCOC(=O)c1ccc(OC(=O)C2CCCc3ccc(NC(=N)N)cc32)cc1` (stereo not shown) [Compound 151]: the IC50 is 42 µM.

The same assay, now with this note: at 10^-3 M; in vitro, TAMe; read-out: Thrombin percent inhibition.
Take `CCCOC(=O)c1ccc(OC(=O)C2CCCc3c(N)cccc32)cc1` (stereo not shown) [Compound 68]: the inhibition at 1000 µM was under 3.2%.

As to `Nc1cccc2c1CCCC2C(=O)Oc1ccc(OC(=O)C2CCCc3c(N)cccc32)cc1` (stereo not shown) [Compound 78], the inhibition at 1000 µM turned out to be 24.4%.

Turning to `CCCOC(=O)c1ccc(OC(=O)C2CCCc3ccc(N)cc32)cc1` (stereo not shown) [Compound 96], the inhibition at 1000 µM came out at 25.1%.

Turning to `CCCOC(=O)c1ccc(OC(=O)C2CCCc3c(NC(=N)N)cccc32)cc1` (stereo not shown) [Compound 123], the inhibition at 1000 µM was 46.7%.

The assay is the same for the next values; noted with them: text of Examples.
As for `Cl.Nc1ccc2c(c1)C(C(=O)Oc1ccc(Cl)cc1)CCC2` (stereo not shown) [Compound 83, p-chlorophenyl 7-amino-1,2,3,4-tetrahydro-1-naphthoate hydrochloride], the “inhibitory activity on thrombin” value is recorded as “no inhibitory action”.

The target in another assay is Human Plasmin (Homo sapiens, UniProt P00747). As to the kind of experiment: Inhibitory effect on ester-hydrolyzing activity of human plasmin (TAMe substrate). Type of assay: biochemical. The conditions noted are these: at 10^-3 M; in vitro, TAMe; read-out: Plasmin percent inhibition. On the procedure:
The enzyme-inhibitory activities in vitro of the compounds of this invention were measured by the following procedure according to the method of M. Muramatsu et al. [[…]. […] After the incubation, 1.5 ml of 2 M alkaline hydroxylamine was added and thoroughly mixed, and allowed to stand at room temperature for 15 minutes. […] It was measured by using 0.1 ml of plasmin (generated by activation of plasminogen with streptokinase) and TAMe as substrate following the method described in (1).
For the molecule `COC(=O)c1ccc(OC(=O)C2CCCc3c(N)cccc32)cc1` (stereo not shown) [Compound 63], the inhibition at 1000 µM stood at 35%.

For `CCCOC(=O)c1ccc(OC(=O)C2CCCc3c(N)cccc32)cc1` (stereo not shown) [Compound 68], the inhibition at 1000 µM is under 3.2%.

Turning to `CN(C)C(=O)COC(=O)c1ccc(OC(=O)C2CCCc3c(N)cccc32)cc1` (stereo not shown) [Compound 72], the inhibition at 1000 µM was under 3.2%.

As to `Nc1cccc2c1CCCC2C(=O)Oc1ccc(OC(=O)C2CCCc3c(N)cccc32)cc1` (stereo not shown) [Compound 78], the inhibition at 1000 µM was under 3.2%.

For the molecule `CCCOC(=O)c1ccc(OC(=O)C2CCCc3ccc(N)cc32)cc1` (stereo not shown) [Compound 96], the inhibition at 1000 µM was under 3.2%.

Still in this assay, the particulars now being: in vitro, TAMe; Table 4 bracketed value; read-out: Plasmin ID50.
Regarding `NC(=O)COC(=O)c1ccc(OC(=O)C2CCCc3ccc(N)cc32)cc1` (stereo not shown) [Compound 99], the IC50 was determined as 300 µM.

As for `CCCOC(=O)c1ccc(OC(=O)C2CCCc3c(NC(=N)N)cccc32)cc1` (stereo not shown) [Compound 123], the IC50 turned out to be 900 µM.

In the case of `CCCOC(=O)c1ccc(OC(=O)C2CCCc3ccc(NC(=N)N)cc32)cc1` (stereo not shown) [Compound 151], the IC50 worked out at 480 µM.

The assay is the same for the next values; noted with them: text of Examples.
Take `Cl.Nc1ccc2c(c1)C(C(=O)Oc1ccc(Cl)cc1)CCC2` (stereo not shown) [Compound 83, p-chlorophenyl 7-amino-1,2,3,4-tetrahydro-1-naphthoate hydrochloride]: the “inhibitory activity on plasmin” value is “no inhibitory action”.

For the origin of these results see US4214093A, “Amino- or guanidino-1,2,3,4-tetrahydro-1-naphthoic esters” (Torii & Co., Ltd., priority 1977, dated 1980).
